Results published in patent publication US10166289B2, “Compositions including beta-glucans and method of use” (BIOTHERA, INC., priority 2011, dated 2019).

How the values were obtained:
[1] = system: human neutrophils, monocytes, B-cells, and monocyte-derived dendritic cells; assay: Binding of soluble β-glucan to immune cells, flow cytometry with glucan specific Ab BFD IV; type: cell-based; details: for binding to immune cells: human neutrophils, monocytes, monocyte-derived dendritic cells
Method: Monocyte-derived dendritic cells (MoDCs) were prepared from blood obtained from healthy volunteers as described in Peters et al. (Advances in Experimental Medicine and Biology; 329:275-280; 1993). At day 7, the MoDCs were resuspended in RPMI 1640 supplemented with 10% human serum (Sigma-Aldrich, St. Louis, Mo.). PBMCs were obtained from healthy volunteers and similarly resuspended in RPMI 1640 supplemented with 10% human serum. The MoDCs and PBMCs were treated with vehicle alone or with IMPRIME (Biothera, Eagan, Minn.) at 100 μg/mL, 200 μg/mL, or 400 μg/mL for two hours. Binding of IMPRIME was assessed by flow cytometric analysis with a glucan specific Ab BFD IV (U.S. Pat. No. 6,084,092).

[2] = system: systemic pro-inflammatory cytokines; assay: Induction of systemic pro-inflammatory cytokines
[3] = system: monocytes (CD14+) in PBMCs; assay: Modulation of TLR 4 agonist LPS-induced co-stimulatory marker CD40 expression by monocytes (FACS); type: cell-based, human
Method: PBMCs obtained from healthy volunteers were treated with 25 ng/mL LPS (InvivoGen, San Diego, Calif.) either concurrently with noted doses of IMPRIME PGG (Biothera, Eagan, Minn.) or after cells were pretreated overnight with IMPRIME PGG. The cells were cultured over five days in media containing 10% fresh human serum and then stained with an anti-CD14 antibody (BioLegend, Inc., San Diego, Calif.) to identify the monocyte subset in the PBMC mixture and an anti-CD40 antibody (BioLegend, Inc., San Diego, Calif.) to evaluate CD40 expression by FACS analysis (BD Biosciences, San Jose, Calif.).

[4] = system: B cells (CD19+) in PBMCs; assay: Modulation of TLR 7/8 agonist CL097-induced B cell proliferation (CFSE dilution, FACS); type: cell-based; details: 2 μM CL097 with 50 μg/mL IMPRIME PGG, five days, 10% human serum
Method: (§1) TLR activation of B cells induces cellular proliferation that can be measured by a reduction in the staining intensity of the intracellular dye, carboxyfluorescein succinimidyl ester (CFSE, Invitrogen, Life Technologies Corp., Carlsbad, Calif.). The principle behind this technique is that as a cell divides the CFSE dye is diluted in half between the daughter cells after each division.
PBMCs obtained from healthy volunteers were treated with 2 μM CL097 (InvivoGen, San Diego, Calif.) in the presence or absence of 50 μg/mL IMPRIME PGG (Biothera, Eagan, Minn.) and cultured over five days in media containing 10% fresh human serum (Sigma-Aldrich, St. Louis, Mo.). The cells were stained with an anti-CD19 antibody (BioLegend, Inc., San Diego, Calif.) to identify the B cell subset in the PBMC mixture and intensity of CFSE staining was measured my FACS analysis (BD Biosciences, San Jose, Calif.).

[5] = system: B cells (CD19+) in PBMCs; assay: Modulation of TLR 9 agonist CpG 2006-induced B cell proliferation (CFSE dilution, FACS); type: cell-based; details: 100 nM CpG 2006 with 50 μg/mL IMPRIME PGG, five days, 10% human serum
Method: as §1
PBMCs obtained from healthy volunteers were treated with 100 nM CpG 2006 (InvivoGen, San Diego, Calif.) in the presence or absence of 50 μg/mL IMPRIME PGG (Biothera, Eagan, Minn.) and cultured over five days in media containing 10% fresh human serum (Sigma-Aldrich, St. Louis, Mo.). The cells were stained with an anti-CD19 antibody (BioLegend, Inc., San Diego, Calif.) to identify the B cell subset in the PBMC mixture and intensity of CFSE staining was measured my FACS analysis (BD Biosciences, San Jose, Calif.).

laminarin [reference compound]
binding to immune cells [1]: can bind

β(1,6)-[poly-1,3)-D-glucopyranosyl]-poly-β(1,3)-D-glucopyranose [IMPRIME PGG]
induction of systemic pro-inflammatory cytokines [2]: do not appear to induce systemic pro-inflammatory cytokines
binding to immune cells [1]: can bind
receptors through which immune cell subsets are bound ([1]; neutrophils and monocytes): through complement binding receptors (CR2 on B-cells; CR3 on neutrophils and monocytes), not a TLR
CD40 expression effect with pre-incubation ([3]; PBMCs pre-incubated overnight with IMPRIME PGG before 25 ng/mL LPS): magnified
CD40 expression compared to treating the PBMCs with only the TLR agonist ([3]; PBMCs, 25 ng/mL LPS concurrently with IMPRIME PGG, five days): an increase in CD40 expression
B cell proliferation compared to PBMCs treated with only the TLR agonist [4]: increases B cell proliferation
B cell proliferation compared to PBMCs treated with only the TLR agonist [5]: increases B cell proliferation
